Measurements: ChEMBL document CHEMBL1201862, “PubChem BioAssay data set” (2004)
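48-hour exposure; five concentrations; linearly interpolated endpoints. Here, GI50 denotes the concentration required for 50% inhibition of growth.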 Calls of active or inactive are those of the source. No stated cut-off is given here; in the data, active = GI50 up to about 1.1 µM and inactive = higher.

Columns and labels:
Assay in all cases: inhibition of tumour cell growth, NCI panel, 48 h
DMS-114 = tested on: DMS-114
HL-60 = tested on: HL-60
OVCAR-5 = tested on: OVCAR-5
KM-20L2 = tested on: KM-20L2
ACHN = tested on: ACHN
SK-OV-3 = tested on: SK-OV-3
M14 = tested on: M14
OVCAR-3 = tested on: OVCAR-3
SNB-75 = tested on: SNB-75
SNB-19 = tested on: SNB-19
KM12 = tested on: KM12
MOLT-4 = tested on: MOLT-4
UACC-62 = tested on: UACC-62
K562 = tested on: K562
A498 = tested on: A498
SK-MEL-28 = tested on: SK-MEL-28
NCI-H460 = tested on: NCI-H460
SR = tested on: SR
HT-29 = tested on: HT-29
LXFL 529 = tested on: LXFL 529
SK-MEL-2 = tested on: SK-MEL-2
IGROV-1 = tested on: IGROV-1
CCRF-CEM = tested on: CCRF-CEM
U-251 = tested on: U-251
OVCAR-4 = tested on: OVCAR-4
RXF 393 = tested on: RXF 393
SNB-78 = tested on: SNB-78
RPMI-8226 = tested on: RPMI-8226
SF-295 = tested on: SF-295
Malme-3M = tested on: Malme-3M
HOP-92 = tested on: HOP-92
HOP-62 = tested on: HOP-62
SF-268 = tested on: SF-268
UO-31 = tested on: UO-31
NCI-H522 = tested on: NCI-H522
UACC-257 = tested on: UACC-257
M19-MEL = tested on: M19-MEL
NCI-H23 = tested on: NCI-H23
COLO 205 = tested on: COLO 205
CAKI-1 = tested on: CAKI-1
DMS-273 = tested on: DMS-273
786-0 = tested on: 786-0
TK-10 = tested on: TK-10
DLD-1 = tested on: DLD-1
EKVX = tested on: EKVX
SN12C = tested on: SN12C
HCC 2998 = tested on: HCC 2998
A549 = tested on: A549
HCT-116 = tested on: HCT-116
SW-620 = tested on: SW-620
HCT-15 = tested on: HCT-15
LOX IMVI = tested on: LOX IMVI
SK-MEL-5 = tested on: SK-MEL-5
SF-539 = tested on: SF-539
OVCAR-8 = tested on: OVCAR-8

With `CCO[C@@H]1OC(=O)[C@@](C)(C(C)=O)[C@@H]1C` as the compound, how does the GI50 (DMS-114) read?
The GI50 was 19.1 µM (inactive).

And the GI50 (HL-60)?
The GI50 was 23 µM (inactive).

And the GI50 (OVCAR-5)?
Its GI50 is 60 µM (inactive).

What about the GI50 (KM-20L2) of the same compound?
Its GI50 is 41.4 µM (inactive).

And the GI50 (ACHN)?
Its GI50 is > 100 µM (inactive).

And the GI50 (SK-OV-3)?
The GI50 was 43.6 µM (inactive).

And the GI50 (M14)?
The GI50 was 26 µM (inactive).

What about the GI50 (OVCAR-3) of the same compound?
The GI50 was 14.4 µM (inactive).

What about the GI50 (SNB-75) of the same compound?
Its GI50 is 3.27 µM (inactive).

And the GI50 (SNB-19)?
The GI50 was 19.1 µM (inactive).

And the GI50 (KM12)?
Its GI50 is 28.4 µM (inactive).

And the GI50 (MOLT-4)?
Its GI50 is 19.2 µM (inactive).

What about the GI50 (UACC-62) of the same compound?
The GI50 was 20.9 µM (inactive).

And the GI50 (K562)?
The GI50 was 30.5 µM (inactive).

And the GI50 (A498)?
The GI50 was > 100 µM (inactive).

What about the GI50 (SK-MEL-28) of the same compound?
The GI50 was 15.7 µM (inactive).

And the GI50 (NCI-H460)?
Its GI50 is > 100 µM (inactive).

And the GI50 (SR)?
The GI50 was 25.5 µM (inactive).

And the GI50 (HT-29)?
Its GI50 is 17.5 µM (inactive).

And the GI50 (LXFL 529)?
Its GI50 is 19.5 µM (inactive).

What about the GI50 (SK-MEL-2) of the same compound?
Its GI50 is 20.4 µM (inactive).

And the GI50 (IGROV-1)?
Its GI50 is 36.5 µM (inactive).

What about the GI50 (CCRF-CEM) of the same compound?
Its GI50 is 13 µM (inactive).

And the GI50 (U-251)?
Its GI50 is 21 µM (inactive).

What about the GI50 (OVCAR-4) of the same compound?
Its GI50 is 29 µM (inactive).

What about the GI50 (RXF 393) of the same compound?
Its GI50 is 24.1 µM (inactive).

And the GI50 (SNB-78)?
Its GI50 is 25 µM (inactive).

And the GI50 (RPMI-8226)?
Its GI50 is 18.7 µM (inactive).

What about the GI50 (SF-295) of the same compound?
Its GI50 is 20.1 µM (inactive).

And the GI50 (Malme-3M)?
The GI50 was 23.3 µM (inactive).

What about the GI50 (HOP-92) of the same compound?
The GI50 was 26.1 µM (inactive).

What about the GI50 (HOP-62) of the same compound?
The GI50 was 20.8 µM (inactive).

And the GI50 (SF-268)?
Its GI50 is 18.3 µM (inactive).

What about the GI50 (UO-31) of the same compound?
Its GI50 is 37.9 µM (inactive).

What about the GI50 (NCI-H522) of the same compound?
The GI50 was > 100 µM (inactive).

And the GI50 (UACC-257)?
Its GI50 is 24.4 µM (inactive).

What about the GI50 (M19-MEL) of the same compound?
Its GI50 is 19.1 µM (inactive).

And the GI50 (NCI-H23)?
Its GI50 is 14.5 µM (inactive).

And the GI50 (COLO 205)?
The GI50 was 87.7 µM (inactive).

Which results are given for `NC(=O)N=C(NCc1ccccc1)NCc1ccccc1`?
GI50 (CAKI-1): > 100 µM (inactive); GI50 (DMS-273): > 100 µM (inactive); GI50 (KM-20L2): > 100 µM (inactive); GI50 (786-0): > 100 µM (inactive); GI50 (ACHN): > 100 µM (inactive); GI50 (SK-OV-3): > 100 µM (inactive); GI50 (M14): > 100 µM (inactive); GI50 (TK-10): > 100 µM (inactive); GI50 (OVCAR-3): > 100 µM (inactive); GI50 (DLD-1): > 100 µM (inactive); GI50 (SNB-19): > 100 µM (inactive); GI50 (KM12): > 100 µM (inactive); GI50 (UACC-62): > 100 µM (inactive); GI50 (SK-MEL-28): > 100 µM (inactive); GI50 (NCI-H460): > 100 µM (inactive); GI50 (EKVX): > 100 µM (inactive); GI50 (HT-29): > 100 µM (inactive); GI50 (LXFL 529): > 100 µM (inactive); GI50 (SK-MEL-2): > 100 µM (inactive); GI50 (IGROV-1): > 100 µM (inactive); GI50 (U-251): > 100 µM (inactive); GI50 (OVCAR-4): > 100 µM (inactive); GI50 (SN12C): > 100 µM (inactive); GI50 (SNB-78): > 100 µM (inactive); GI50 (SF-295): > 100 µM (inactive); GI50 (HOP-92): 20 µM (inactive); GI50 (HOP-62): > 100 µM (inactive); GI50 (HCC 2998): > 100 µM (inactive); GI50 (A549): > 100 µM (inactive); GI50 (SF-268): > 100 µM (inactive); GI50 (HCT-116): > 100 µM (inactive); GI50 (SW-620): > 100 µM (inactive); GI50 (UO-31): > 100 µM (inactive); GI50 (NCI-H522): > 100 µM (inactive); GI50 (UACC-257): > 100 µM (inactive); GI50 (HCT-15): > 100 µM; GI50 (LOX IMVI): > 100 µM (inactive); GI50 (SK-MEL-5): > 100 µM (inactive); GI50 (SF-539): > 100 µM (inactive); GI50 (NCI-H23): > 100 µM (inactive); GI50 (OVCAR-8): > 100 µM (inactive); GI50 (COLO 205): > 100 µM (inactive)
